Laboratory results: patent publication US8551445B2, “Preparation and use of alkylating agents” (The Queen's Medical Center, priority 2003, dated 2013)

Assays:
[1] = LAL pyrogen test (Charles River Labs Endosafe); settings: final purified solutions in physiologic saline
[2] = Culture of final purified solutions for microorganism growth (sterility); settings: 1 mL of final purified solution in physiologic saline; enriched thioglycollate at 37° C. and trypticase soy broth at 23° C.; 2 weeks
Procedure: The final purified solutions in physiologic saline [^18F]FCH and [^18F]FECh were cultured (1 mL) for microorganisms for growth in enriched thioglycollate at 37° C. and trypticase soy broth media at 23° C. […] A positive control standard is always included in the assay. [^18F]FCH is currently in an FDA approved pre-clinical IND safety trial in humans.

[3] = FDA approved pre-clinical IND safety trial in humans; format: in vivo; settings: after about fifty trials

Compound	pyrogens (LAL) [1]	growth of microorganisms in culture [2]	adverse effects [3]
C[N+](C)(C[18F])CCO [[^18F]FCH, [^18F]N,N-Dimethyl-N-fluoromethylethanolamine]	pyrogen free	No growth	no adverse effects
C[N+](C)(CCO)CC[18F] [[^18F]FECh, [^18F]N,N-Dimethyl-N-fluoroethylethanolamine]	pyrogen free	No growth	–
